Reference: patent US11931365B2, “Use of PPAR-delta agonists in the treatment of disease” (Reneo Pharmaceuticals, Inc., priority 2022, dated 2024)

Experiments:
FXR = FXR (Homo sapiens, UniProt Q96RI1); test: Nuclear receptor activity
[1] = test system: healthy male volunteers, leg immobilization; test: Phase 1 placebo-controlled study in healthy volunteers with single limb immobilization; type: in vivo, human; conditions: 100 mg twice daily for 28 days
Method: In a prior clinical trial in healthy volunteers, Compound I was administered at dose of 100 mg twice daily for 28 days in healthy volunteers during and after a single limb immobilization (see NCT01524406). The study was conducted to evaluate the impact of Compound I on the recovery of muscle atrophy from leg immobilization, and improvements in cross section area (CSA) and muscle strength parameters expected in patients treated with study drug compared to those given placebo.
This phase 1, randomized, parallel group, placebo-controlled study was conducted at 2 centers in the United States. Fifty participants were planned for enrollment, 25 per group; participants could be replaced upon sponsor approval.
Screening was conducted 28 days before study start; eligibility was reviewed again at prespecified times during the study. Ambulatory, non-smoking, healthy male volunteers 30 to 55 years of age with a Body Mass Index (BMI) from 18 to 30 kg/m2 were recruited for the study. Key exclusion criteria included abnormal laboratory values at screening, a recent history of body weight fluctuations, positive urine drug screens, drug dependency or illicit drug use, professional sport participation within 30 days of screening, donation of whole blood within 90 days of dosing, and donation of plasma within 30 days of dosing. Concomitant medications within 14 days of dosing were not allowed unless approved by the sponsor. Those who had enrolled in another clinical trial within 90 days or had previously received Compound II were not allowed to participate.
Participants were randomly assigned 1:1 to receive either Compound II (100 mg BID) or matching placebo for 28 days using a computer generated randomization schedule provided by the sponsor. The principal investigator, study center staff, and participants were blinded to treatment; the protocol was amended so that sponsor personnel were not blinded. This change was made to allow investigation of observations concerning adherence to the protocol, discussed further in the pharmacodynamic results. Compound II and placebo were provided as capsules identical in appearance, taken orally with 240 ml of water prior to meals. Study drug was administered at the study site on Days 1 (PM dose), 6 (AM dose), 13 (PM dose), and 14, 15, 16, 29 (AM doses). At all other times study drug was self-administered just before breakfast and dinner. Dates and times were recorded in a diary, with compliance determined from the diaries and capsule counts. Study drug supplies were packaged according to the randomization codes by a contract research organization. Each dispensed bottle was labeled with the randomization number. Individual capsules were re-dispensed from these bottles by the study site staff, maintaining the blind. The total study duration for each subject was 42 days. Participants stayed overnight from Day 1 and Days 13 to 16.
Standardized meals, beverages and snacks were provided during the domicile periods. On Day 1, participants were leg-immobilized using a knee brace with […] on the left leg to allow driving. Walking crutches were provided to prevent weight bearing on the immobilized leg. An accelerometer was issued at screening and was used to count the number of steps per day. Participants were to walk 4000 to 6000 steps each day for the duration of the leg immobilization period, and recorded accelerometer readings each evening before bedtime. The brace was removed on Day 14, and participants resumed normal physical activity gradually from Days 16 to 29. After stopping study drug on Day 29, participants were to resume regular daily activity gradually for another 2 weeks. Consumption of prescribed medications or over the counter products was prohibited from 14 days prior to dosing and throughout the study, with the exception of the treatment of an adverse event. Participants were not to consume alcohol or caffeine containing food and beverages 3 days before each study visit and domicile periods. […]

hPPARδ = target: T1, hPPARδ (Homo sapiens, UniProt Q03181); test: PPAR receptor transactivation assay (UAS-bla Gal4, HEK293); type: cell-based
T1 construct: expressed in transfected cells; host or cells: Jump-In GripTite HEK293
T1 sequence (Q03181 1-441): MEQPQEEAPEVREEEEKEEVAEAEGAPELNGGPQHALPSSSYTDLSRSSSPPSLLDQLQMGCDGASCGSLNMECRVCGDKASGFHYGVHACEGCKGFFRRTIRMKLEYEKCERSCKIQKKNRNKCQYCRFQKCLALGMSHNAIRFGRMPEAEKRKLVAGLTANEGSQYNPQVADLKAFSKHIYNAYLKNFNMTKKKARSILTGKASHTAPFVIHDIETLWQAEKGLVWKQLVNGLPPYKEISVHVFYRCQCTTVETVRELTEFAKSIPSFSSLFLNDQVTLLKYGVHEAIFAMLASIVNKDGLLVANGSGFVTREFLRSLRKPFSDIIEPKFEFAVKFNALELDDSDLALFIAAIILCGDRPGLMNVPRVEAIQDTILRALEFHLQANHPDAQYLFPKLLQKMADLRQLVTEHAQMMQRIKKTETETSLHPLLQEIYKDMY
Method: Compound I was tested on all three human PPAR subtypes (hPPAR): hPPARα, hPPARγ, and hPPARδ in vitro assays testing for such activity.
Compound I was tested on all three human PPAR subtypes (hPPAR): hPPARα, hPPARγ, and hPPARδ. All assays were repeated at least three times for each subtype.
The genes of interest were synthesized and cloned into an appropriate Jump-In™ retargeting vector following the User Guide of the Jump-in™ T-REx™ HEK293 Retargeting Kit (ThermoFisher Catalog No A15008). For example, the vector will be used to transfect and retarget the Jump-In™ HEK293 GripTite™ parental cell line. Stable pools will be antibiotic-selected for about 21 days and tested for target gene expression by functional assay.
Jump-In™ GripTite™ HEK293 parental cells were plated at 60-80% confluency in a T-75 flask in growth medium without antibiotics and transfected with a 1:1 ratio of expression construct and R4 integrase expression construct (20 μg DNA total) using Lipofectamine® LTX (50 μL) and PLUS™ Reagent (20 μL). Following a 48 hours incubation, cells were selected with 600 μg/mL Geneticin® and 10 μg/mL Blasticidin for ˜21 days in growth medium.
Jump-In™ GripTite™ HEK293 rPPAR Alpha, Delta or Gamma UAS-bla-Gal4 cell pools were plated in a 384-well plate format (20,000 cells per well) in OptiMeM without FBS in replicates (n=4). Cells were allowed to adhere for 8 hours before addition of Compound I (1 mM top concentration, 3-fold dilutions, 10-point titration). After 16 hours, the cells were loaded with LiveBLAzer®, a fluorescent BLA substrate that gives a blue/green readout of expressing/non-expressing cells, respectively. The blue/green readout was measured on a fluorescent plate reader (Tecan Safire II).

LXRβ = LXRβ (Homo sapiens, UniProt P55055); test: Nuclear receptor activity
Sequence of LXRβ (P55055 whole entry): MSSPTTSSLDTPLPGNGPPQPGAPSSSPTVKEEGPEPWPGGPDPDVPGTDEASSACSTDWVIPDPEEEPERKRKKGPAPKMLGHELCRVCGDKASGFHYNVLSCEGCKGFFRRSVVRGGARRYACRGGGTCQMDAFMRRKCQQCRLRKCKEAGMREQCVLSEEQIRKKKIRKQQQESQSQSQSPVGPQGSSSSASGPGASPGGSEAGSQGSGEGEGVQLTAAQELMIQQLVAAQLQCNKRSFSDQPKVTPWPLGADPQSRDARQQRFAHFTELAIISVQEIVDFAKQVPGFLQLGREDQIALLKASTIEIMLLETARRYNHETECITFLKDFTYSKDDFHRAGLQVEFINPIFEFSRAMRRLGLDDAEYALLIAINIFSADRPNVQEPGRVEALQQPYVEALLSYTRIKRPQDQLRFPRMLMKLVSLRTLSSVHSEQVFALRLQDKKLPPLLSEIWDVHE

VLCAD = VLCAD enzymatic activity in cultured fibroblasts from FAOD patients with VLCAD deficiency; type: cell-based, human; conditions: fibroblasts from symptomatic VLCAD deficient patients
PPARα = PPARα (UniProt Q4PNY3); test: PPAR receptor transactivation assay; type: cell-based; conditions: Monkey PPARα
LXRα = LXRα (Homo sapiens, UniProt Q13133); test: Nuclear receptor activity
Sequence of LXRα (Q13133 whole entry): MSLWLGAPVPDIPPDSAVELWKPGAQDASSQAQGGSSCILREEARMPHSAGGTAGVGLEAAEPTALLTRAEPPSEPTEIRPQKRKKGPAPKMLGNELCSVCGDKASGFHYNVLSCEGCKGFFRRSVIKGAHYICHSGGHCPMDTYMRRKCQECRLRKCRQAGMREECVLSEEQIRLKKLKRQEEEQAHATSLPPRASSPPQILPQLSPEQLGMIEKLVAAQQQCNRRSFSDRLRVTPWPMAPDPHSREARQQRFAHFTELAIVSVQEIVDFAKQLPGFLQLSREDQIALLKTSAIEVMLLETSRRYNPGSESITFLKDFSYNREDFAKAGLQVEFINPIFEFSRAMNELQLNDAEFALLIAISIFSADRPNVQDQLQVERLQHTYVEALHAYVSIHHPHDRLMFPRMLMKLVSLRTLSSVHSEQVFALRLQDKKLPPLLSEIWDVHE

Sequence of FXR (Q96RI1 whole entry, species assumed): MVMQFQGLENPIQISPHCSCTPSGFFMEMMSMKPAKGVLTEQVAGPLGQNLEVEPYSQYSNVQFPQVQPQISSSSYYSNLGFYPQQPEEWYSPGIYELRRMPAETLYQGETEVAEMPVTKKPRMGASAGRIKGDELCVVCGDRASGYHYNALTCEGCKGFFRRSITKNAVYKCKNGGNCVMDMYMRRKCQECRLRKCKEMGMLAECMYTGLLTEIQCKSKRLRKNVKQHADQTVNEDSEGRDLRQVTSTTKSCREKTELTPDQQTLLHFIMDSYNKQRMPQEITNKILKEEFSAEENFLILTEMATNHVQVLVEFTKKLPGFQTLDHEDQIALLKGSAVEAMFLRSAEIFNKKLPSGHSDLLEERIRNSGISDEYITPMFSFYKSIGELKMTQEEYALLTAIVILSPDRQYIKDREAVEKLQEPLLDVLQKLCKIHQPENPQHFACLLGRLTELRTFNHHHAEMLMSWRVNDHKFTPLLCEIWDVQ

Structure (SMILES): Cc1cc(OC/C=C(/c2ccc(F)cc2)c2ccc(C#CCN3CCOCC3)cc2)ccc1OCC(=O)O [Compound I, (E)-2-(4-((3-(4-fluorophenyl)-3-(4-(3-morpholinoprop-1-yn-1-yl)phenyl)allyl)oxy)-2-methylphenoxy)acetic acid]
- activity on nuclear receptor FXR (FXR): did not show any
- expression of PPAR regulated target genes (ANGPTL4) and fatty acid metabolism genes (PDK4) in muscle biopsies [1]: significant increases
- mean knee extension strength from baseline vs placebo ([1]; Day 21): significant increase
- agonist type (hPPARδ; PPARδ): full agonist
- selectivity for PPARδ over PPARα (hPPARδ; PPARδ over PPARα): 100 fold
- selectivity for PPARδ over PPARγ (hPPARδ; PPARδ over PPARγ): 400 fold
- activity on nuclear receptor LXRβ (LXRβ): did not show any
- VLCAD enzymatic activity (VLCAD): increased
- EC50 (PPARα): > 1000 nM
- activity on nuclear receptor LXRα (LXRα): did not show any
